Test results as given in PMC8371902, “Phase 1 study of M2698, a p70S6K/AKT dual inhibitor, in patients with advanced cancer” (Journal of Hematology & Oncology, 2021).

Experiments:
[1] = in vivo
Excerpt: A monotherapy population PK model was developed, consisting of a two-compartment model with four absorption transit compartments and first-order elimination (Additional file 1: Table S5).

[2] = test system: phospho-S6 (pS6) in peripheral blood mononuclear cells; assay: pS6 in PBMCs by flow cytometry, PK/PD Emax model
Experimental: Pharmacodynamic biomarker analysis consisted of measuring levels of phospho-S6 (pS6) by flow cytometry in peripheral blood mononuclear cells (PBMCs) collected on cycle 1, days 1 and 15 at predose, 2, 4, and 8 h, and at predose on cycles ≥ 2, days 1, 8 and 15; and by immunohistochemistry in tumor biopsies obtained at baseline and on treatment (cycle 2, day 1; from the same tumor when possible).

[3] = test system: advanced metastatic cancer; assay: Antitumor activity: tumor response (RECIST 1.1) and progression-free survival; type: in vivo, human
Experimental: Tumor response was assessed using RECIST 1.1. As for drugs with cytostatic antitumor activity, disease control rate was defined as the sum of stable disease (SD) and objective response rates; SD was considered clinically beneficial. Progression-free survival (PFS) was measured from treatment initiation until disease progression or death and was estimated using the Kaplan–Meier method.

[4] = All patients, M2698 monotherapy 15 mg, N=3
[5] = All patients, M2698 monotherapy 30 mg, N=3
[6] = All patients, M2698 monotherapy 60 mg, N=6
[7] = All patients, M2698 monotherapy 75 mg, N=4
[8] = All patients, M2698 monotherapy 110 mg, N=4
[9] = All patients, M2698 monotherapy 160 mg, N=6
[10] = All patients, M2698 monotherapy 200 mg, N=3
[11] = All patients, M2698 monotherapy 240 mg, N=17
[12] = All patients, M2698 monotherapy 320 mg, N=12
[13] = All patients, M2698 monotherapy 380 mg, N=4
[14] = All patients, M2698 monotherapy, Total of all dose levels, N=62
[15] = PAM+ patients with confounding markers, M2698 monotherapy 15 mg, N=1
[16] = PAM+ patients with confounding markers, M2698 monotherapy 60 mg, N=2
[17] = PAM+ patients with confounding markers, M2698 monotherapy 75 mg, N=1
[18] = PAM+ patients with confounding markers, M2698 monotherapy 110 mg, N=1
[19] = PAM+ patients with confounding markers, M2698 monotherapy 160 mg, N=2
[20] = PAM+ patients with confounding markers, M2698 monotherapy, Total of all dose levels, N=7
[21] = PAM+ patients without confounding markers, M2698 monotherapy 15 mg, N=2
[22] = PAM+ patients without confounding markers, M2698 monotherapy 30 mg, N=2
[23] = PAM+ patients without confounding markers, M2698 monotherapy 60 mg, N=2
[24] = PAM+ patients without confounding markers, M2698 monotherapy 75 mg, N=1

NC(=O)c1cccc2c(N[C@H](CN3CCC3)c3ccc(Cl)c(C(F)(F)F)c3)ncnc12 [M2698]
Additive RSV (residual variability), population PK estimate [1]: 3.44 | Proportional RSV (residual variability), population PK estimate [1]: 0.163 | EC50, PK/PD model of pS6 in PBMCs (plasma concentration for 50% inhibition) ([2]; NONMEM estimate): 1643 ng/mL | Emax, PK/PD model of pS6 in PBMCs ([2]; NONMEM estimate): 0.148 | Inhibition of pS6 levels in PBMCs ([2]; in vivo): dose- and concentration-dependent inhibition | Patients with stable disease ([3]; 54 PAM+ patients, monotherapy): 40.7% | Median PFS [3, 4]: 4.1 months | Response, NE [3, 4]: 0 (0.0) n (%) | Response, PD [3, 4]: 1 (33.3) n (%) | Response, SD at wk 6 [3, 4]: 2 (66.7) n (%) | Median PFS [3, 5]: 4.1 months | Response, NE [3, 5]: 0 (0.0) n (%) | Response, PD [3, 5]: 0 (0.0) n (%) | Response, SD at wk 6 [3, 5]: 3 (100) n (%) | Median PFS [3, 6]: 1.4 months | Response, NE [3, 6]: 1 (16.7) n (%) | Response, PD [3, 6]: 4 (66.7) n (%) | Response, SD at wk 6 [3, 6]: 1 (16.7) n (%) | Median PFS [3, 7]: 1.4 months | Response, NE [3, 7]: 0 (0.0) n (%) | Response, PD [3, 7]: 3 (75.0) n (%) | Response, SD at wk 6 [3, 7]: 1 (25.0) n (%) | Median PFS [3, 8]: 1.3 months | Response, NE [3, 8]: 1 (25.0) n (%) | Response, PD [3, 8]: 2 (50.0) n (%) | Response, SD at wk 6 [3, 8]: 1 (25.0) n (%) | Median PFS [3, 9]: 1.6 months | Response, NE [3, 9]: 0 (0.0) n (%) | Response, PD [3, 9]: 4 (66.7) n (%) | Response, SD at wk 6 [3, 9]: 2 (33.3) n (%) | Median PFS [3, 10]: 4.1 months | Response, NE [3, 10]: 0 (0.0) n (%) | Response, PD [3, 10]: 1 (33.3) n (%) | Response, SD at wk 6 [3, 10]: 2 (66.7) n (%) | Median PFS [3, 11]: 2.0 months | Response, NE [3, 11]: 3 (17.6) n (%) | Response, PD [3, 11]: 8 (47.1) n (%) | Response, SD at wk 6 [3, 11]: 6 (35.3) n (%) | Median PFS [3, 12]: 2.8 months | Response, NE [3, 12]: 2 (16.7) n (%) | Response, PD [3, 12]: 5 (41.7) n (%) | Response, SD at wk 6 [3, 12]: 5 (41.7) n (%) | Median PFS [3, 13]: 6.2 months | Response, NE [3, 13]: 2 (50.0) n (%) | Response, PD [3, 13]: 0 (0.0) n (%) | Response, SD at wk 6 [3, 13]: 2 (50.0) n (%) | Median PFS [3, 14]: 2.3 months | Response, NE [3, 14]: 9 (14.5) n (%) | Response, PD [3, 14]: 28 (45.2) n (%) | Response, SD at wk 6 [3, 14]: 25 (40.3) n (%) | Response, NE [3, 15]: 0 (0.0) n (%) | Response, PD [3, 15]: 0 (0.0) n (%) | Median PFS [3, 16]: 1.4 months | Response, NE [3, 16]: 1 (50.0) n (%) | Response, PD [3, 16]: 1 (50.0) n (%) | Median PFS [3, 17]: 1.4 months | Response, NE [3, 17]: 0 (0.0) n (%) | Response, PD [3, 17]: 1 (100) n (%) | Median PFS [3, 18]: 1.3 months | Response, NE [3, 18]: 0 (0.0) n (%) | Response, PD [3, 18]: 1 (100) n (%) | Median PFS [3, 19]: 1.4 months | Response, NE [3, 19]: 0 (0.0) n (%) | Response, PD [3, 19]: 2(100.0) n (%) | Median PFS [3, 20]: 1.4 months | Response, NE [3, 20]: 1 (14.3) n (%) | Response, PD [3, 20]: 5 (71.4) n (%) | Median PFS [3, 21]: 4.1 months | Response, NE [3, 21]: 0 (0.0) n (%) | Response, PD [3, 21]: 1 (50.0) n (%) | Response, SD at wk 6 [3, 21]: 1 (50.0) n (%) | Median PFS [3, 22]: 10.3 months | Response, NE [3, 22]: 0 (0.0) n (%) | Response, PD [3, 22]: 0 (0.0) n (%) | Response, SD at wk 6 [3, 22]: 2 (100.0) n (%) | Median PFS [3, 23]: 1.4 months | Response, NE [3, 23]: 0 (0.0) n (%) | Response, PD [3, 23]: 2(100.0) n (%) | Response, SD at wk 6 [3, 23]: 0 (0.0) n (%) | Median PFS [3, 24]: 2.8 months | Response, NE [3, 24]: 0 (0.0) n (%) | Response, PD [3, 24]: 0 (0.0) n (%) | Response, SD at wk 6 [3, 24]: 1(100.0) n (%) | Median PFS ([3]; PAM+ patients without confounding markers, M2698 monotherapy 110 mg, N=2): 15.1 months
